Results as given in patent publication US7230139B2, “Diterpenoid compounds, compositions thereof and their use as anti-cancer or anti-fungal agents” (priority 2004, dated 2007).

Assay: Solubility by filtration and LC/MS
Format: physicochemical
Settings: in water (printed for Compound 74)
Method: To determine whether a compound is soluble in a solution, the solution was filtered on […] polytetrafluoroethylene filters (Whatman Inc. Clifton, N.J., USA) and the compound concentration in the filtrate was measured by LC/MS and compared to the expected concentration. If the concentration of the compound in the filtrate was equal +/−15% to the expected concentration, the compound was judged to be soluble in the solution.
The detection of Compound 74 or Compound 50 by LC/MS was carried out using the HPLC system that consisted of a Waters Alliance quaternary gradient HPLC pump (Waters, Milford, Mass., USA) and a ZQ2000 single quadrupole mass spectrometer (Waters, Milford, Mass., USA). The column used was XTerra MS C18: 50×2.1 mm, […] column at 20° C. Samples were injected and separated under the following conditions: The mobile phase “A” consisted of 5 mM ammonium formate, 0.1% formic acid in water and mobile phase “B” consisted of 5 mM ammonium formate, 0.1% formic acid in methanol. A linear gradient was applied as follows: 0 to 1 min, 94% “A” and 6% “B”; 1 to 4 min, 6% to 100% “B”; 4 to 8 min 100% “B”; 8 to 9 min, 100% “B” to 6% “B”; 9 to 12 min, 94% “A” and 6% “B”. […] Compounds were detected at m/z equal to their respective molecular weight plus 1.

COc1ccc2c(c1)C1(C)C=CC(=O)C(C)(C)C1=C(O)C2=O (racemic) [Compound 50]
solubility: < 100 µg/mL
